Results: patent US11214803B2, “Modulators of YAP1 expression” (Ionis Pharmaceuticals, Inc., priority 2019, dated 2022)
Where “and” joins values, the source holds several entries; their conditions need not be identical. Equal values may be shown once. Strand notation (5' to 3'): a small letter for the sugar, then the base; units joined by * are phosphorothioate-linked, units joined directly phosphodiester-linked; [ ] holds rarer units or linkages, { } end groups; capitals alone tell only the bases. k = constrained ethyl (cEt); [5mC] = 5-methylcytosine; d = 2'-deoxy (DNA)

What was measured:
[1] = Tolerability in Balb/c mice, body and organ weights (Example 10); type: in vivo; conditions: 50 mg/kg subcutaneously twice a week for four weeks, end of study
Description: (§1) Groups of male Balb/c mice at 4-6 weeks of age (obtained from Taconic) were injected subcutaneously twice a week for four weeks (for a total of 8 treatments) with 50 mg/kg of modified oligonucleotides. One group of male Balb/c mice was injected with PBS. Mice were euthanized on day 26 post start of treatment (24 hours following the final administration).
Body weights of Balb/c mice were measured at the end of the study, and the average body weight for each group is presented in the table below. Modified oligonucleotides that caused any changes in organ weights outside the expected range for modified oligonucleotides were excluded from further studies.

[2] = Tolerability in CD-1 mice, body and organ weights (Example 15); type: in vivo; conditions: male CD-1 mice, 50 mg/kg s.c. twice a week for four weeks (8 treatments), end of study (day 26)
Description: Groups of four male CD-1 mice at 4-5 weeks of age (obtained from Charles River) were injected subcutaneously twice a week for four weeks (for a total of 8 treatments) with 50 mg/kg of modified oligonucleotides. One group of male CD-1 mice was injected with PBS. Mice were euthanized on day 26 post start of treatment (24 hrs following the final administration).
Body weights of CD-1 mice were measured at the end of the study, and the average body weight for each group is presented in the table below. Modified oligonucleotides that caused any changes in organ weights outside the expected range for modified oligonucleotides were excluded from further studies.

Yap1 mRNA [3] = experiment: Antisense inhibition of human Yap1 in SNU-449 cells by modified oligonucleotides, single dose (Example 5, RTS36584); type: cell-based
Method in brief: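 Values are % of untreated control: Yap1 mRNA by quantitative RT-PCR (RTS36584), normalized to RIBOGREEN total RNA. Oligonucleotides were dosed at 2,000 nM, free uptake, in SNU-449 cells, with roughly 48 h exposure before RNA isolation.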

Yap1 mRNA [4] = experiment: Antisense inhibition of human Yap1 in A-431 cells by cEt gapmers, single dose (Example 2, RTS4814); type: cell-based
Method in brief: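 Yap1 mRNA levels, by real-time RT-PCR (RTS4814) and corrected for total RNA via RIBOGREEN, are given as percent of untreated cells. Gapmers (16-mer, cEt wings, phosphorothioate, 5-methylC) were delivered without transfection at 2,000 nM to A-431 cells for about 48 hours.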

[5] = Tolerability in Balb/c mice, plasma chemistry markers (Example 12); type: in vivo; conditions: 50 mg/kg subcutaneously twice a week for four weeks
Description: Balb/c mice were treated with modified oligonucleotides selected from studies described above and evaluated for changes in the levels of various plasma chemistry markers.
as §1, with “6-7” for “4-6”

715487 (kA*kT*kT*dA*d[5mC]*dT*dT*d[5mC]*dA*dT*dA*dG*d[5mC]*kT*kT*kA) [compound 715487]
Kidney weight [1]: 0.36 g | Liver weight [1]: 1.24 g | Spleen weight [1]: 0.14 g | body weight [1]: 23 g | Kidney weight [2]: 0.59 g | Liver weight [2]: 2.24 g | Spleen weight [2]: 0.21 g | body weight [2]: 41 g

958499 (kA*kT*kT*dA*dG*dA*dG*dT*dA*dT*dG*dT*dG*kG*k[5mC]*kA) [Compound 958499]
YAP1 (% UTC) (Yap1 mRNA [3]; Table 39, SNU-449 cells, 10,000 cells per well, free uptake, 2,000 nM oligonucleotide, approx. 48 hours, RTS36584, normalized to RIBOGREEN, Yap1 mRNA relative to untreated control): 8 % UTC | YAP1 (% UTC) (Yap1 mRNA [3]; Table 40 (separate experiment), SNU-449 cells, 10,000 cells per well, free uptake, 2,000 nM oligonucleotide, approx. 48 hours, RTS36584, normalized to RIBOGREEN, Yap1 mRNA relative to untreated control): 15 % UTC | YAP1 (% UTC) (Yap1 mRNA [3]; Table 41, SNU-449 cells, 10,000 cells per well, free uptake, 2,000 nM modified oligonucleotide, approximately 48 hours, RTS36584, normalized to RIBOGREEN, Yap1 mRNA relative to untreated control cells): 14 % UTC | YAP1 (% UTC) (Yap1 mRNA [3]; Table 42 (separate experiment), SNU-449 cells, 10,000 cells per well, free uptake, 2,000 nM modified oligonucleotide, approximately 48 hours, RTS36584, normalized to RIBOGREEN, Yap1 mRNA relative to untreated control cells): 15 % UTC | YAP1 (% UTC) (Yap1 mRNA [3]; Table 43 experiment, SNU-449 cells, 10,000 cells per well, free uptake, 2,000 nM, approximately 48 hours, RTS36584, Yap1 mRNA normalized to RIBOGREEN, relative to untreated control cells): 14 % UTC | YAP1 (% UTC) (Yap1 mRNA [3]; Table 44 experiment, SNU-449 cells, 10,000 cells per well, free uptake, 2,000 nM, approximately 48 hours, RTS36584, Yap1 mRNA normalized to RIBOGREEN, relative to untreated control cells): 9 % UTC | YAP1 (% UTC) (Yap1 mRNA [3]; Table 45, Yap1 mRNA as percent of untreated control, SNU-449 cells, single dose): 15 % UTC | YAP1 (% UT) (Yap1 mRNA [3]; Table 46, Yap1 mRNA as percent of untreated control, SNU-449 cells, single dose): 16 % UT | YAP1 (% UT) (Yap1 mRNA [3]; Table 48, Yap1 mRNA level relative to untreated control, modified oligonucleotides targeting SEQ ID NO.: 1 and 2): 15 % UT | YAP1 (% UT) (Yap1 mRNA [3]; Table 49, Yap1 mRNA level relative to untreated control, modified oligonucleotides targeting SEQ ID NO.: 1 and 2): 13 % UT | YAP1 (% UT) (Yap1 mRNA [3]; Table 50, Yap1 mRNA remaining as percent of untreated control (UT), SNU-449 cells, single dose): 12 % UT | YAP1 (% UT) (Yap1 mRNA [3]; Table 51, Yap1 mRNA remaining as percent of untreated control (UT), SNU-449 cells, single dose): 9 % UT | YAP1 (% UT) (Yap1 mRNA [3]; Table 52, Yap1 mRNA, modified oligonucleotides targeting SEQ ID NO: 1 and 2): 14 % UT | YAP1 (% UT) (Yap1 mRNA [3]; Yap1 mRNA, percent of untreated control, modified oligonucleotides targeting SEQ ID NO: 1 and 2, Table 47): 17 % UT and 10 % UT | YAP1 (% UTC) (Yap1 mRNA [4]; Table 18, A-431 cells, 5,000 cells per well, free uptake, 2,000 nM modified oligonucleotide, approx. 48 hours, RTS4814, normalized to RIBOGREEN, Yap1 mRNA as percent of untreated control): 1 % UTC | YAP1 (% UTC) (Yap1 mRNA [4]; Table 19, A-431 cells, 5,000 cells per well, free uptake, 2,000 nM modified oligonucleotide, approx. 48 hours, RTS4814, normalized to RIBOGREEN, Yap1 mRNA as percent of untreated control): 2 % UTC | YAP1 (% UTC) (Yap1 mRNA [4]; Table 20, Yap1 mRNA, percent of untreated control, 3-10-3 cEt gapmers targeting SEQ ID NO.: 1 and 2): 1 % UTC | YAP1 (% UTC) (Yap1 mRNA [4]; Table 21, Yap1 mRNA, percent of untreated control, 3-10-3 cEt gapmers targeting SEQ ID NO.: 1 and 2): 1 % UTC | YAP1 (% UTC) (Yap1 mRNA [4]; Table 22, Yap1 mRNA as percent of untreated control, 3-10-3 cEt gapmers, single dose): 1 % UTC | YAP1 (% UTC) (Yap1 mRNA [4]; Table 23, Yap1 mRNA as percent of untreated control, 3-10-3 cEt gapmers, single dose): 2 % UTC | YAP1 (% UTC) (Yap1 mRNA [4]; Table 24, Yap1 mRNA as percent of untreated control, 3-10-3 cEt gapmers targeting SEQ ID NO.: 1, and 2): 2 % UTC | YAP1 (% UTC) (Yap1 mRNA [4]; Table 25, Yap1 mRNA as percent of untreated control, 3-10-3 cEt gapmers targeting SEQ ID NO.: 1, and 2): 1 % UTC

958499 (ATTAGAGTATGTGGCA; 3-10-3 cEt gapmer, further chemistry not given here) [compound 958499]
ALT [5]: 142 U/L | AST [5]: 146 U/L | BUN [5]: 26 mg/dL | TBIL [5]: 0.17 mg/dL | YAP1 (% UTC) (Yap1 mRNA [4]; Table 32, Yap1 mRNA, percent of untreated control, 3-10-3 cEt gapmers targeting SEQ ID NO.: 1, and 2): 2 % UTC | YAP1 (% UTC) (Yap1 mRNA [4]; Table 33, Yap1 mRNA, percent of untreated control, 3-10-3 cEt gapmers targeting SEQ ID NO.: 1, and 2): 4 % UTC | YAP1 (% UTC) (Yap1 mRNA [4]; Yap1 mRNA as percent of untreated control, A-431 cells, 3-10-3 cEt gapmers targeting SEQ ID NO.: 1, and 2, Table 30): 1 % UTC | YAP1 (% UTC) (Yap1 mRNA [4]; Yap1 mRNA as percent of untreated control, A-431 cells, 3-10-3 cEt gapmers targeting SEQ ID NO.: 1, and 2, Table 31): 1 % UTC
